The record followed here is ChEMBL document CHEMBL5365441, “Novel Foscan®-derived ring-fused chlorins for photodynamic therapy of cancer” (Bioorg Med Chem, 2023).

Data set [1] deals with MDA-MB-231. The experiment in a line: Photocytotoxicity against human MDA-MB-231 cells assessed as reduction in cell viability preincubated for 24 hrs followed by washout and 1 J/cm2 light irradiation for 24 hrs by resazurin reduction assay. Format: functional, cell-based. The note with it: MDA-MB-231, light or radiation study. A general note: The colour change of resazurin is a common sign of viable cells or microbes.

In data set [2] the test system is MDA-MB-231. The experiment in a line: Cytotoxicity against human MDA-MB-231 cells assessed as reduction in cell viability incubated for 24 hrs under dark condition by resazurin reduction assay. Format: functional, cell-based. The settings on record: MDA-MB-231, 24 h.
For data set [3], the system named is MDA-MB-231. The experiment in a line: Phototherapeutic index, ratio of IC50 for cytotoxicity against human MDA-MB-231 cells under dark condition to IC50 for photocytotoxicity against human MDA-MB-231 cells in presence of 1 J/cm2 light irradiation. Format: functional.
Data set [4] in a line: Cytotoxicity against mouse NIH/3T3 cells assessed as reduction in cell viability incubated for 24 hrs under dark condition by resazurin reduction assay. Format: toxicity, cell-based, NIH3T3.
A short description of data set [5]: Photocytotoxicity against mouse NIH/3T3 cells assessed as reduction in cell viability preincubated for 24 hrs followed by washout and 1 J/cm2 light irradiation for 24 hrs by resazurin reduction assay. It is filed as toxicity, cell-based, NIH3T3.
The nature of data set [6]: Drug internalization in human MDA-MB-231 cells at 2.5 uM by flow cytometry analysis. The settings on record: mda-mb-231, 2.5 µM, TDE = time-dependent effect, time 3-24 hrs. It is filed as ADME, cell-based. A general note: In flow cytometry, cells or beads pass a laser one at a time.
A short description of data set [7]: Drug internalization in mouse NIH/3T3 cells at 2.5 uM by flow cytometry analysis. Format: ADME, cell-based. The settings on record: nih3t3, 2.5 µM, TDE = time-dependent effect, time 3-24 hrs.
Data set [8] can be described thus: Photostability of compound in DMSO assessed as photodecomposition quantum yield. It is filed as physicochemical.
Data set [9] in a line: Emission property of compound in DMSO assessed as fluorescence quantum yield. It is filed as physicochemical.
Data set [10] can be described thus: Induction of singlet oxygen production in EtOH assessed as singlet oxygen quantum yield by SOSG reagent based assay. It is filed as functional.
Data set [11] is described as follows: Drug distribution in endoplasmic reticulum of human U2OS cells expressing CALR-GFP assessed as increase in fluorescence intensity at 5 uM incubated for 24 hrs by Hoechst staining based confocal microscopic analysis. It is filed as ADME, subcellular.
Data set [12] can be described thus: Drug distribution in golgi body of human U2OS cells expressing GALT1-GFP assessed as increase in fluorescence intensity at 5 uM incubated for 24 hrs by Hoechst staining based confocal microscopic analysis. Format: ADME, subcellular.

Usually IC50 stands for the concentration needed to halve the response being measured. `COC(=O)c1cc2n(n1)CC1c3nc(c(-c4cccc(O)c4)c4ccc([nH]4)c(-c4cccc(O)c4)c4nc(c(-c5cccc(O)c5)c5ccc([nH]5)c3-c3cccc(O)c3)C=C4)C1C2` (centres undefined): the values for the IC50 (in the data set with MDA-MB-231 [1]; with MDA-MB-231 [2]; in [5]) were 138 nM, 7740 nM and 109 nM, respectively. Besides, the “Ratio IC50” value in the data set with MDA-MB-231 [3] amounted to 56.27. Besides, the IC50 at 24 h in data set [4] is > 10000 nM. The Drug uptake result in data set [6] and in [7] was “Tde” each time. For the same compound, the Activity is 60.8 10^-6No_unit in data set [8], 0.11 in data set [9] and 0.53 in [10].
As to `[N-]=[N+]=NCc1cc2n(n1)CC1c3nc(c(-c4cccc(O)c4)c4ccc([nH]4)c(-c4cccc(O)c4)c4nc(c(-c5cccc(O)c5)c5ccc([nH]5)c3-c3cccc(O)c3)C=C4)C1C2` (centres undefined), the IC50 in the data set with MDA-MB-231 [1] was found to be 106 nM; in the data set on MDA-MB-231 [2] it was 15800 nM; in data set [5] it was 93.1 nM. For the same compound, in the data set on MDA-MB-231 [3], the “Ratio IC50” value worked out at 149.7. The 50% inhibitory concentration (IC50) at 24 h in data set [4] is 10600 nM. The Drug uptake result in data set [6] and in [7] was “Tde” each time. For the same compound, the Activity in [8] was 60.8 10^-6No_unit; in data set [9] it was 0.12; in data set [10], 0.47.
Turning to `COC(=O)c1cc2n(n1)CC1c3nc(c(-c4cccc(OC(C)=O)c4)c4ccc([nH]4)c(-c4cccc(OC(C)=O)c4)c4nc(c(-c5cccc(OC(C)=O)c5)c5ccc([nH]5)c3-c3cccc(OC(C)=O)c3)C=C4)C1C2` (centres undefined), the IC50 is 1.3 nM with MDA-MB-231 [1], > 10000 nM with MDA-MB-231 [2] and 617 nM in data set [5]. In addition, the IC50 at 24 h in [4] was > 10000 nM. In addition, the Drug uptake entry in data set [6] is “Tde”; in data set [7] it was “Tde”; in [11], “Not Active”; in [12], “Not Active”. In addition, the Activity is 66.9 10^-6No_unit in data set [8], 0.11 in data set [9] and 0.45 in data set [10].
As for `OCc1nn2c(c1CO)CC1c3nc(c(-c4cccc(O)c4)c4ccc([nH]4)c(-c4cccc(O)c4)c4nc(c(-c5cccc(O)c5)c5ccc([nH]5)c3-c3cccc(O)c3)C=C4)C1C2` (centres undefined), the IC50 in the data set on MDA-MB-231 [1] is 309 nM; in the data set with MDA-MB-231 [2], 11400 nM; in data set [5], 343 nM. The “Ratio IC50” value in the data set with MDA-MB-231 [3] turned out to be 37. For the same compound, in [4], the IC50 at 24 h is > 10000 nM. The Drug uptake entry in data set [6] and in data set [7] was “Tde” throughout. Also, the Activity was 54.8 10^-6No_unit in data set [8], 0.1 in data set [9] and 0.49 in [10].
On to `OCc1cc2n(n1)CC1c3nc(c(-c4cccc(O)c4)c4ccc([nH]4)c(-c4cccc(O)c4)c4nc(c(-c5cccc(O)c5)c5ccc([nH]5)c3-c3cccc(O)c3)C=C4)C1C2` (centres undefined), for which the values for the IC50 (in the data set on MDA-MB-231 [1]; in the data set with MDA-MB-231 [2]; in data set [5]) were 86.3 nM, 7740 nM and 107 nM, respectively. Besides, in the data set with MDA-MB-231 [3], the “Ratio IC50” value is recorded as 93.37. Further, the IC50 at 24 h in data set [4] was > 10000 nM. For the same compound, the Drug uptake entry in data set [6] is given as “Tde”; in data set [7] it was “Tde”; in data set [11] it was “Active”; in [12] it was “Active”. The results for the Activity in data set [8], in data set [9] and in data set [10] were 52.7 10^-6No_unit, 0.1 and 0.5, respectively.
For the compound `Oc1cccc(-c2c3nc(c(-c4cccc(O)c4)c4ccc([nH]4)c(-c4cccc(O)c4)c4nc(c(-c5cccc(O)c5)c5ccc2[nH]5)C=C4)C=C3)c1`, the IC50 is 25.7 nM with MDA-MB-231 [1], 3310 nM with MDA-MB-231 [2] and 12.5 nM in [5]. Further, the IC50 at 24 h in [4] was found to be 9160 nM. Also, the Drug uptake entry in [6] and in [7] was “Tde” throughout.
